In ChEMBL document CHEMBL4665783, “N-terminal modified cyclopeptidic mimetics of Apollo as inhibitors of TRF2” (Bioorg Med Chem Lett, 2020):

Key:
[1] = molecular target: T1, Telomeric repeat-binding factor 2 (Homo sapiens, UniProt Q15554); experiment: Binding affinity to TRFH domain of TRF2 (residues 42 to 245) (unknown origin) by FP based assay
T1 sequence (Q15554 whole entry): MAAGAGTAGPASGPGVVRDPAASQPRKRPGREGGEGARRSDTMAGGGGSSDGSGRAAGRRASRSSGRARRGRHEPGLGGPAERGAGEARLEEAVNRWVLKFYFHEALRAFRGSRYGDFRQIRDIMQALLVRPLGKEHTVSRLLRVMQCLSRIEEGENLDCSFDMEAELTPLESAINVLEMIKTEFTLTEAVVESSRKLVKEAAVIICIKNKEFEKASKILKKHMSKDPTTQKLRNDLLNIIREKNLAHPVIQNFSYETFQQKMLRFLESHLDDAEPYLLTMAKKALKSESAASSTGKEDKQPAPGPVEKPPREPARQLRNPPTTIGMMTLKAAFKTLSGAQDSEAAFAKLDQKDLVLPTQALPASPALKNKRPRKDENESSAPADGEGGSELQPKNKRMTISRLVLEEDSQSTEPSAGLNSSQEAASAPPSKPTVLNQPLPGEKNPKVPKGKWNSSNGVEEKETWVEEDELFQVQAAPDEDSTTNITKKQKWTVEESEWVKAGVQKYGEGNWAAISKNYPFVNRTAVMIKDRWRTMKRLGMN

[2] = molecular target: T1, Telomeric repeat-binding factor 2; experiment: Binding affinity to biotinylated TRF2 (unknown origin) by biolayer interferometry assay

Compound | Ki [1] | Kd [2]
CC(C)C[C@@H]1NC(=O)[C@@H](NC(=O)c2cc(OCCN)cc(OCc3ccccc3)c2)COCCCCOC[C@@H](C(=O)N(C)C)NC(=O)[C@@H]2CCCN2C(=O)[C@H](C)NC1=O | 35 µM | 
CC(C)C[C@@H]1NC(=O)[C@@H](NC(=O)c2cc(OCc3ccccc3)cc(OC3CCCC3)c2)COCCCCOC[C@@H](C(=O)N(C)C)NC(=O)[C@@H]2CCCN2C(=O)[C@H](C)NC1=O | 5.1 µM | 
CC(C)C[C@@H]1NC(=O)[C@@H](NC(=O)c2cc(OCc3ccccc3)cc(OCC3CCCC3)c2)COCCCCOC[C@@H](C(=O)N(C)C)NC(=O)[C@@H]2CCCN2C(=O)[C@H](C)NC1=O | 6.9 µM | 
CC(C)C[C@@H]1NC(=O)[C@@H](NC(=O)c2cc(OCc3ccccc3)cc(OC(C)C)c2)COCCCCOC[C@@H](C(=O)N(C)C)NC(=O)[C@@H]2CCCN2C(=O)[C@H](C)NC1=O | 11 µM | 

The next compounds have a lower Ki [1] than those just listed; values first:

Ki [1] | Kd [2] | Compound
4.9 µM |  | CC(C)C[C@@H]1NC(=O)[C@@H](NC(=O)c2cc(OCc3ccccc3)cc(OC3CCC3)c2)COCCCCOC[C@@H](C(=O)N(C)C)NC(=O)[C@@H]2CCCN2C(=O)[C@H](C)NC1=O
4.3 µM |  | CC(C)C[C@@H]1NC(=O)[C@@H](NC(=O)c2cc(OCc3ccccc3)cc(OCC3CCC3)c2)COCCCCOC[C@@H](C(=O)N(C)C)NC(=O)[C@@H]2CCCN2C(=O)[C@H](C)NC1=O
4.2 µM | 2500 nM | CC(C)C[C@@H]1NC(=O)[C@@H](NC(=O)c2cc(OCc3ccccc3)cc(OCC3CC3)c2)COCCCCOC[C@@H](C(=O)N(C)C)NC(=O)[C@@H]2CCCN2C(=O)[C@H](C)NC1=O
0.33 µM |  | Ac-LALKYLLTPV-NH2
